Reference: PubChem BioAssay AID330 (DTP/NCI, 2004)
Where “and” joins values, the source holds several entries; their conditions need not be identical. Equal values may be shown once. Toxic doses and inconclusive results are not listed. Rule for the calls: active = survival T/C of 150% or more; inactive = T/C below 125% in these data.

Tested on: P388 leukemia ip, CD2F1 mice, survival T/C
Test: NCI In Vivo Anticancer Drug Screen. Data for tumor model P388 Leukemia (intraperitoneal) in CD2F1 (CDF1) mice
Details: endpoint: median survival time, higher = longer survival
Summary of the method: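 Mice carrying the transplanted tumor received test compound or vehicle. Survival was recorded in each group, and the value is the treated-group measurement divided by that of the vehicle-treated control group.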

[1] = dose: 100.0 mg/kg/injection, schedule: Q04DX003 (ip), vehicle: saline with Tween-80
[2] = dose: 200.0 mg/kg/injection, schedule: Q04DX003 (ip), vehicle: saline with Tween-80
[3] = dose: 400.0 mg/kg/injection, schedule: Q04DX003 (ip), vehicle: saline with Tween-80
[4] = dose: 25.0 mg/kg/injection, schedule: Q01DX009 (ip), vehicle: saline
[5] = dose: 50.0 mg/kg/injection, schedule: Q01DX009 (ip), vehicle: saline with Tween-80
[6] = dose: 100.0 mg/kg/injection, schedule: Q01DX009 (ip), vehicle: saline with Tween-80
[7] = dose: 200.0 mg/kg/injection, schedule: Q01DX009 (ip), vehicle: saline with Tween-80
[8] = dose: 50.0 mg/kg/injection, schedule: Q01DX009 (ip), vehicle: Klucel (hydroxypropylcellulose) (HPC)
[9] = dose: 100.0 mg/kg/injection, schedule: Q01DX009 (ip), vehicle: Klucel (hydroxypropylcellulose) (HPC)
[10] = dose: 200.0 mg/kg/injection, schedule: Q01DX009 (ip), vehicle: Klucel (hydroxypropylcellulose) (HPC)
[11] = dose: 100.0 mg/kg/injection, schedule: Q04DX002 (ip), vehicle: Klucel (hydroxypropylcellulose) (HPC)
[12] = dose: 200.0 mg/kg/injection, schedule: Q04DX002 (ip), vehicle: Klucel (hydroxypropylcellulose) (HPC)
[13] = dose: 25.0 mg/kg/injection, schedule: Q01DX009 (ip), vehicle: distilled water + Tween-80
[14] = dose: 50.0 mg/kg/injection, schedule: Q01DX009 (ip), vehicle: distilled water + Tween-80
[15] = dose: 100.0 mg/kg/injection, schedule: Q01DX009 (ip), vehicle: distilled water + Tween-80
[16] = dose: 200.0 mg/kg/injection, schedule: Q01DX009 (ip), vehicle: distilled water + Tween-80

Measured: T/C

CCOC(=O)CC(=O)c1ccc(C)cc1
inactive: [1] 100 % of control | [2] 104 % of control | [3] 109 % of control

CN=NN/C1=C/CCCCCC1
inactive: dose: 15.0 mg/kg/injection, schedule: Q01DX005 (ip), vehicle: Klucel + Tween-80 105 % of control | dose: 30.0 mg/kg/injection, schedule: Q01DX005 (ip), vehicle: Klucel + Tween-80 113 % of control | dose: 60.0 mg/kg/injection, schedule: Q01DX005 (ip), vehicle: Klucel + Tween-80 111 % of control and 117 % of control

O=C(NNc1ccccc1)c1ccccc1Cl
inactive: [4] 101 % of control | dose: 50.0 mg/kg/injection, schedule: Q01DX009 (ip), vehicle: saline 105 % of control | dose: 100.0 mg/kg/injection, schedule: Q01DX009 (ip), vehicle: saline 97 % of control | dose: 200.0 mg/kg/injection, schedule: Q01DX009 (ip), vehicle: saline 98 % of control

COc1ccccc1C1NC(c2ccccc2OC)C2CCCC1C2 (stereo not given)
inactive: dose: 100.0 mg/kg/injection, schedule: Q04DX003 (ip), vehicle: saline 91 % of control | dose: 200.0 mg/kg/injection, schedule: Q04DX003 (ip), vehicle: saline 90 % of control | dose: 400.0 mg/kg/injection, schedule: Q04DX003 (ip), vehicle: saline 88 % of control

COc1cc(/C=C/C2=C(C)C(=O)CC(c3cc(OC)cc(OC)c3)C2C)cc(OC)c1 (stereo not given)
inactive: dose: 12.5 mg/kg/injection, schedule: Q04DX003 (ip), vehicle: Klucel (hydroxypropylcellulose) (HPC) 100 % of control | dose: 25.0 mg/kg/injection, schedule: Q04DX003 (ip), vehicle: Klucel (hydroxypropylcellulose) (HPC) 98 % of control | dose: 50.0 mg/kg/injection, schedule: Q04DX003 (ip), vehicle: Klucel (hydroxypropylcellulose) (HPC) 95 % of control

COC(=O)c1cc(=O)n2c(nc3ccccc32)s1
inactive: dose: 50.0 mg/kg/injection, schedule: Q01DX005 (ip), vehicle: acetone 108 % of control | dose: 100.0 mg/kg/injection, schedule: Q01DX005 (ip), vehicle: acetone 104 % of control | dose: 200.0 mg/kg/injection, schedule: Q01DX005 (ip), vehicle: acetone 101 % of control

CN(C)C(=Nc1ccccc1)OC1=C/C(=C2/C=C(OC(=Nc3ccccc3)N(C)C)N=C2OC(=Nc2ccccc2)N(C)C)C(OC(=Nc2ccccc2)N(C)C)=N1
inactive: dose: 100.0 mg/kg/injection, schedule: Q01DX001 (ip), vehicle: Klucel (hydroxypropylcellulose) (HPC) 106 % of control | dose: 200.0 mg/kg/injection, schedule: Q01DX001 (ip), vehicle: Klucel (hydroxypropylcellulose) (HPC) 106 % of control | dose: 400.0 mg/kg/injection, schedule: Q01DX001 (ip), vehicle: Klucel (hydroxypropylcellulose) (HPC) 104 % of control

CCOCC1COc2c(cc3[nH]cc(C(=O)OCC)c(=O)c3c2Cl)O1 (stereo not given) (tested in a mixture with another compound)
inactive: [5] 94 % of control | [6] 99 % of control | [7] 101 % of control

CCCCCCCCCCCCCCCCOP(=O)([O-])OCC[N+](C)(C)C
inactive: dose: 15.0 mg/kg/injection, schedule: Q01DX005 (ip), vehicle: saline 100 % of control | dose: 30.0 mg/kg/injection, schedule: Q01DX005 (ip), vehicle: saline 100 % of control | dose: 60.0 mg/kg/injection, schedule: Q01DX005 (ip), vehicle: saline 102 % of control and 103 % of control

CC(C)(C)c1cc(O)cc(C(=O)O)c1O
inactive: [5] 101 % of control | [6] 100 % of control

CCOC(=O)CN1C(=S)CSC1=S
inactive: [8] 106 % of control | [9] 98 % of control | [10] 107 % of control and 109 % of control

ClC1=CCCC(C(Br)Br)C1 (stereo not given)
inactive: [8] 99 % of control | [9] 100 % of control | [10] 102 % of control

NNc1ncnc2nc[nH]c12
inactive: dose: 6.25 mg/kg/injection, schedule: Q01DX009 (ip), vehicle: saline sonified 95 % of control | dose: 6.25 mg/kg/injection, schedule: Q01DX009 (ip), vehicle: saline 100 % of control | dose: 6.25 mg/kg/injection, schedule: Q01DX009 (ip), vehicle: suspension in saline 111 % of control | dose: 12.5 mg/kg/injection, schedule: Q01DX009 (ip), vehicle: saline sonified 100 % of control | dose: 12.5 mg/kg/injection, schedule: Q01DX009 (ip), vehicle: saline 100 % of control | dose: 12.5 mg/kg/injection, schedule: Q01DX009 (ip), vehicle: suspension in saline 100 % of control | dose: 25.0 mg/kg/injection, schedule: Q01DX009 (ip), vehicle: saline sonified 120 % of control | [4] 106 % of control | dose: 25.0 mg/kg/injection, schedule: Q01DX009 (ip), vehicle: suspension in saline 103 % of control | dose: 50.0 mg/kg/injection, schedule: Q01DX009 (ip), vehicle: suspension in saline 119 % of control | dose: 100.0 mg/kg/injection, schedule: Q04DX003 (ip), vehicle: saline sonified 109 % of control | dose: 200.0 mg/kg/injection, schedule: Q04DX003 (ip), vehicle: saline sonified 90 % of control

CCOC(=O)c1c(C)n(C)c2c1nnc1ccccc12
inactive: dose: 60.0 mg/kg/injection, schedule: Q01DX005 (ip), vehicle: saline with Tween-80 98 % of control | dose: 120.0 mg/kg/injection, schedule: Q01DX005 (ip), vehicle: saline with Tween-80 90 % of control | dose: 240.0 mg/kg/injection, schedule: Q01DX005 (ip), vehicle: saline with Tween-80 86 % of control

COC1OCC2(C)OC(c3ccccc3)=NC2C1O (stereo not given)
inactive: [11] 90 % of control | [12] 100 % of control

CC(C)OP(=O)(OC(C)C)c1ccncc1
inactive: dose: 100.0 mg/kg/injection, schedule: Q01DX001 (ip), vehicle: saline 99 % of control | dose: 200.0 mg/kg/injection, schedule: Q01DX001 (ip), vehicle: saline 96 % of control | dose: 400.0 mg/kg/injection, schedule: Q01DX001 (ip), vehicle: saline 101 % of control

CCOC(=O)c1[nH]c(=O)[nH]c(=O)c1I
inactive: dose: 12.5 mg/kg/injection, schedule: Q01DX009 (ip), vehicle: distilled water + Tween-80 97 % of control | [13] 105 % of control | [14] 106 % of control | [15] 105 % of control | [16] 105 % of control

CCCCCCCCCCCCO[P+](=O)OCCCCCCCCCCCC
inactive: dose: 50.0 mg/kg/injection, schedule: Q01DX009 (ip), vehicle: saline sonified 110 % of control | dose: 66.0 mg/kg/injection, schedule: Q01DX009 (ip), vehicle: saline with Tween-80 109 % of control | dose: 100.0 mg/kg/injection, schedule: Q01DX009 (ip), vehicle: saline sonified 110 % of control | [6] 100 % of control and 95 % of control | [1] 95 % of control | dose: 150.0 mg/kg/injection, schedule: Q01DX009 (ip), vehicle: saline with Tween-80 100 % of control | [7] 90 % of control | [2] 91 % of control | dose: 400.0 mg/kg/injection, schedule: Q01DX009 (ip), vehicle: saline with Tween-80 90 % of control | [3] 95 % of control

Cc1ccc(NC(O)(C(F)(F)F)C(F)(F)F)cc1
inactive: [11] 100 % of control | [12] 97 % of control | dose: 400.0 mg/kg/injection, schedule: Q04DX002 (ip), vehicle: Klucel (hydroxypropylcellulose) (HPC) 96 % of control

Cc1ccc(N=Nc2c(-c3ccccc3)nn(C(=S)S)c2-c2ccccc2)cc1
inactive: dose: 25.0 mg/kg/injection, schedule: Q04DX002 (ip), vehicle: Klucel (hydroxypropylcellulose) (HPC) 101 % of control | dose: 50.0 mg/kg/injection, schedule: Q04DX002 (ip), vehicle: Klucel (hydroxypropylcellulose) (HPC) 105 % of control | [11] 99 % of control | [12] 103 % of control

O=C(NC1CCOC1=O)OCc1ccccc1 (stereo not given)
inactive: [13] 110 % of control | [14] 95 % of control | [15] 117 % of control | [16] 111 % of control

Cn1c(-c2ccccc2)nc2ccccc2c1=O
inactive: dose: 6.25 mg/kg/injection, schedule: Q01DX009 (ip), vehicle: saline with Tween-80 95 % of control | dose: 12.5 mg/kg/injection, schedule: Q01DX009 (ip), vehicle: saline with Tween-80 101 % of control | dose: 25.0 mg/kg/injection, schedule: Q01DX009 (ip), vehicle: saline with Tween-80 101 % of control
